From ChEMBL document CHEMBL1142788, “Synthesis and antibacterial activity of alkyl derivatives of the glycopeptide antibiotic A40926 and their amides” (2005)
Values after ≈ are worked out from the molar mass of the structure shown.

What was measured:
Enterococcus faecium [1] = test: Minimum inhibitory concentration against vancomycin-A Enterococcus faecium in the presence of 30% bovine serum (n=1) (range = 0.125-16mg/l); type: functional
[2] = tested on: Staphylococcus epidermidis; test: Minimum inhibitory concentration against methicillin-sensitive Staphylococcus epidermidis in the presence of 30% bovine serum; type: functional
Enterococcus faecalis [3] = test: Minimum inhibitory concentration against vancomycin-sensitive Enterococcus faecalis in the presence of 30% bovine serum (n=3); type: functional
[4] = tested on: Staphylococcus haemolyticus; test: Minimum inhibitory concentration against Staphylococcus haemolyticus in the presence of 30% bovine serum; type: functional
[5] = tested on: Staphylococcus epidermidis; test: Minimum inhibitory concentration against methicillin-resistant Staphylococcus epidermidis in the presence of 30% bovine serum; type: functional
Enterococcus faecium [6] = test: Minimum inhibitory concentration against vancomycin-sensitive Enterococcus faecium in the presence of 30% bovine serum(n=1); type: functional
Staphylococcus aureus [7] = test: Minimum inhibitory concentration against methicillin-resistant Staphylococcus aureus
Staphylococcus aureus [8] = test: Minimum inhibitory concentration against methicillin-sensitive Staphylococcus aureus
Enterococcus faecalis [9] = test: Minimum inhibitory concentration against vancomycin-A Enterococcus faecalis (n=4) (range = 0.25-8mg/L)
Enterococcus faecalis [10] = test: Minimum inhibitory concentration against vancomycin-sensitive Enterococcus faecalis in the presence of 30% bovine serum(n=3)(range = 0.125-0.5mg/l); type: functional
Enterococcus faecium [11] = test: Minimum inhibitory concentration against vancomycin-sensitive Enterococcus faecium in the presence of 30% bovine serum(n=1) (range = 1-8 mg/l); type: functional
Enterococcus faecium [12] = test: Minimum inhibitory concentration against vancomycin-A Enterococcus faecium in the presence of 30% bovine serum (n=1) (range = 2>128); type: functional
Staphylococcus aureus [13] = test: Minimum inhibitory concentration against methicillin-sensitive Staphylococcus aureus without serum
Enterococcus faecalis [14] = test: Minimum inhibitory concentration against vancomycin-A Enterococcus faecalis (n=4) (Range = 1 - 8 mg/L)
Enterococcus faecium [15] = test: Minimum inhibitory concentration against vancomycin-A Enterococcus faecium in the presence of 30% bovine serum (n=1) (range = 0.5>128mg/l); type: functional
Enterococcus faecalis [16] = test: Minimum inhibitory concentration against vancomycin-A Enterococcus faecalis in the presence of 30% bovine serum (n=4) (range = 2-4 mg/L); type: functional
Enterococcus faecalis [17] = test: Minimum inhibitory concentration against vancomycin-sensitive Enterococcus faecalis in the presence of 30% bovine serum(n=3)(range = 0.25-1mg/l); type: functional
Enterococcus faecium [18] = test: Minimum inhibitory concentration against vancomycin-A Enterococcus faecium in the presence of 30% bovine serum (n=1) (range = 64>128mg/L); type: functional
Enterococcus faecalis [19] = test: Minimum inhibitory concentration against vancomycin-sensitive Enterococcus faecalis in the presence of 30% bovine serum(n=3)(range = 1-2mg/l); type: functional
Enterococcus faecalis [20] = test: Minimum inhibitory concentration against vancomycin-A Enterococcus faecalis in the presence of 30% bovine serum(n=4) (128 >128mg/L); type: functional
Enterococcus faecalis [21] = test: Minimum inhibitory concentration against vancomycin-sensitive Enterococcus faecalis in the presence of 30% bovine serum (n=3) (range = 0.125-0.5); type: functional
Enterococcus faecium [22] = test: Minimum inhibitory concentration against vancomycin-A Enterococcus faecium in the presence of 30% bovine serum (n=1) (range = 0.125-128mg/l); type: functional
Enterococcus faecalis [23] = test: Minimum inhibitory concentration against vancomycin-A Enterococcus faecalis (n=4) (range = 2-128mg/L)

| Structure (SMILES) | MIC [2] [µg/mL] | MIC [4] [µg/mL] | MIC [5] [µg/mL] | MIC (Enterococcus faecium [6]) [µg/mL] | MIC (Staphylococcus aureus [7]) [µg/mL] | MIC (Staphylococcus aureus [8]) [µg/mL] | other results |
| --- | --- | --- | --- | --- | --- | --- | --- |
| CCCCOc1ccc(CNC2[C@H](Oc3c4cc5cc3Oc3ccc(cc3Cl)[C@@H](O)C3NC(=O)[C@H](NC(=O)[C@@H]5NC(=O)[C@H]5NC(=O)[C@@H](Cc6ccc(cc6)O4)NC(=O)[C@H](N(C)Cc4ccc(OCCCC)cc4)c4ccc(O)c(c4)Oc4cc(O)c(Cl)c5c4)c4ccc(O)c(c4)-c4c(O[C@H]5O[C@H](CO)[C@@H](O)[C@H](O)[C@@H]5O)cc(O)cc4[C@@H](C(=O)NCCCN(C)C)NC3=O)OC(C(=O)NCCCN(C)C)C(O)[C@@H]2O)cc1 (some centres undefined) | < 0.125 | 1 | 0.5 | 0.125 | 1 (≈ 0.489 µM) | 0.25 (≈ 0.122 µM) | MIC (Enterococcus faecium [1]): > 16 µg/mL; MIC (Enterococcus faecalis [3]): < 0.125 µg/mL; MIC (Enterococcus faecalis [9]): 8 µg/mL (≈ 3.92 µM) |
| CCCCOc1ccc(CNC2[C@H](Oc3c4cc5cc3Oc3ccc(cc3Cl)[C@@H](O)C3NC(=O)[C@H](NC(=O)[C@@H]5NC(=O)[C@H]5NC(=O)[C@@H](Cc6ccc(cc6)O4)NC(=O)[C@H](N(C)Cc4ccc(OCCCC)cc4)c4ccc(O)c(c4)Oc4cc(O)c(Cl)c5c4)c4ccc(O)c(c4)-c4c(O[C@H]5O[C@H](CO)[C@@H](O)[C@H](O)[C@@H]5O)cc(O)cc4[C@@H](C(=O)O)NC3=O)OC(C(=O)O)C(O)[C@@H]2O)cc1 (some centres undefined) | 2 | 32 | 8 | – | 1 (≈ 0.533 µM) | – | MIC (Enterococcus faecalis [10]): 0.5 µg/mL; MIC (Enterococcus faecium [11]): 2 µg/mL; MIC (Enterococcus faecium [12]): > 128 µg/mL; MIC (Staphylococcus aureus [13]): 2 µg/mL (≈ 1.07 µM); MIC (Enterococcus faecalis [14]): 8 µg/mL (≈ 4.27 µM) |
| CCCCc1ccc(CNC2[C@H](Oc3c4cc5cc3Oc3ccc(cc3Cl)[C@@H](O)C3NC(=O)[C@H](NC(=O)[C@@H]5NC(=O)[C@H]5NC(=O)[C@@H](Cc6ccc(cc6)O4)NC(=O)[C@H](N(C)Cc4ccc(CCCC)cc4)c4ccc(O)c(c4)Oc4cc(O)c(Cl)c5c4)c4ccc(O)c(c4)-c4c(O[C@H]5O[C@H](CO)[C@@H](O)[C@H](O)[C@@H]5O)cc(O)cc4[C@@H](C(=O)O)NC3=O)OC(C(=O)O)C(O)[C@@H]2O)cc1 (some centres undefined) | 4 | 8 | 8 | 1 | 2 (≈ 1.09 µM) | – | MIC (Enterococcus faecium [15]): > 128 µg/mL; MIC (Enterococcus faecalis [16]): 4 µg/mL; MIC (Enterococcus faecalis [17]): 1 µg/mL |
| CCCCOc1ccc(CN(C)[C@H]2C(=O)N[C@@H]3Cc4ccc(cc4)Oc4cc5cc(c4O[C@@H]4OC(C(=O)O)C(O)[C@H](O)C4N)Oc4ccc(cc4Cl)[C@@H](O)C4NC(=O)[C@H](NC(=O)[C@@H]5NC(=O)[C@@H](NC3=O)c3cc(cc(O)c3Cl)Oc3cc2ccc3O)c2ccc(O)c(c2)-c2c(O[C@H]3O[C@H](CO)[C@@H](O)[C@H](O)[C@@H]3O)cc(O)cc2[C@@H](C(=O)O)NC4=O)cc1 (some centres undefined) | 32 | > 128 | 128 | 2 | 2 (≈ 1.17 µM) | 4 (≈ 2.34 µM) | MIC (Enterococcus faecium [18]): > 128 µg/mL; MIC (Enterococcus faecalis [19]): 2 µg/mL; MIC (Enterococcus faecalis [20]): 128 µg/mL |
| CCCCn1cc(CNC2[C@H](Oc3c4cc5cc3Oc3ccc(cc3Cl)[C@@H](O)C3NC(=O)[C@H](NC(=O)[C@@H]5NC(=O)[C@H]5NC(=O)[C@@H](Cc6ccc(cc6)O4)NC(=O)[C@H](N(C)Cc4cn(CCCC)c6ccccc46)c4ccc(O)c(c4)Oc4cc(O)c(Cl)c5c4)c4ccc(O)c(c4)-c4c(O[C@H]5O[C@H](CO)[C@@H](O)[C@H](O)[C@@H]5O)cc(O)cc4[C@@H](C(=O)NCCCN(C)C)NC3=O)OC(C(=O)NCCCN(C)C)C(O)[C@@H]2O)c2ccccc21 (some centres undefined) | 0.25 | 0.25 | 2 | 0.125 | 2 (≈ 0.957 µM) | 0.5 (≈ 0.239 µM) | MIC (Enterococcus faecalis [21]): < 0.5 µg/mL; MIC (Enterococcus faecium [22]): 128 µg/mL; MIC (Enterococcus faecalis [23]): 128 µg/mL (≈ 61.3 µM) |
